Reference: patent US20230227484A1, “PYRIMIDINE COMPOUND AS AXL INHIBITOR” (NANJING CHIA TAI TIANQING PHARMACEUTICAL CO., LTD., priority 2020, published 2023)

Tests used:
[1] = molecular target: T1, AXL kinase (Homo sapiens, UniProt P30530); experiment: Inhibitory activity of compound against AXL kinase (HTRF KinEASE); assay type: biochemical; details: AXL enzyme (Carna, 08-107), ATP 15 μM; "<" means below detection limit of the test
T1 construct: purchased Carna 08-107
T1 sequence (P30530 473-894 limits assumed): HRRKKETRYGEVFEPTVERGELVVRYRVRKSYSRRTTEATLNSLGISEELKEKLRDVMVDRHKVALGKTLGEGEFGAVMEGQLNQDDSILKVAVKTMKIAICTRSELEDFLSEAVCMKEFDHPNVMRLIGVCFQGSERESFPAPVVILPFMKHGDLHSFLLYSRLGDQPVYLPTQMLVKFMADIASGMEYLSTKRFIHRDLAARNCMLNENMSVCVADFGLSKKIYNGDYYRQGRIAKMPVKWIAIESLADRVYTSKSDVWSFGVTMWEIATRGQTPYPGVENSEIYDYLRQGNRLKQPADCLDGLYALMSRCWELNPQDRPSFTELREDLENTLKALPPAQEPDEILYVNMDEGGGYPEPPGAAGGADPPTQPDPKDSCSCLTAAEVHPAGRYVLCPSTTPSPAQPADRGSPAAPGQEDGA
How it was run: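 AXL enzyme (final 0.016 ng/uL) was preincubated with compound (8 concentrations from 1 μM, ½ log steps) for 15 min at room temperature, then reacted with TK Substrate 3-biotin (final 1) and ATP (final 15 μM) for 45 min at 25° C. Phosphorylation was read by HTRF (TK antibody-cryptate, streptavidin-XL665, 1 h); IC50 from variable-slope dose-response fit.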

[2] = Pharmacokinetic study of compounds on ICR mice; assay type: in vivo; details: mouse, po, male ICR mice, plasma; for Cmax / Tmax / half-life: 10 mg-kg^1 by gavage; for AUC(0-t): 10 mg/kg-kg^1 by gavage, read-out: AUC0-24
Description: Each compound is prepared with DMSO into a 10 mg/mL stock solution.
Preparation of mixed solvent: Tween 80: PEG400: Water=1:9:90 (v/v/v)
450 μl of the compound DMSO stock solution with a concentration of 10 mg/nmL is accurately sucked into a glass bottle, and added with an appropriate volume of DMSO and mixed solvent, wherein a ratio of the solvent in the final formulation is DMSO: mixed solvent (v/v)=10:90. The mixed solution is vortexed (or ultrasonically treated), and dispersed uniformly to obtain 4.5 mL. administration test solutions with a concentration of 1 mg/nL, respectively.
Male 6-10 week old ICR mice (sourced from: Beijing Vital River Laboratory Animal Technology Co., Ltd.) are taken, 6 mice in each group. The mice are fasted overnight and fed 4 h after the administration. On the day of the experiment, the mice are administrated with 10 mg-kg^1 of compound test solution by gavage. After administration, about 100 μL of blood is harvested from the orbits of the mice at 0 min, 5 mmn, 15 mmn, 30 min, 14 h 2 h, 4 h, 8 h, and 24 h, and placed in EDTA-K2 anticoagulant tubes. The whole blood sample is centrifuged at 1500 to 1600 g for 10 mm, and the plasma obtained by separation is stored in a refrigerator at −40 to −20° C. for biological sample analysis. The blood drug concentration is determined by an LC-MS/MS method.
A non-compartmental model in Pharsight Phoenix 7.0 is used to calculate pharmacokinetic parameters. The specific results are shown in 5 the table below.

[3] = test system: human acute monocytic leukemia cell MV-4-11 xenograft tumor; experiment: In-vivo efficacy of compound for MV4-11 xenograft tumor model of nude mouse; details: MV4-11, po, intragastric 5 mg/kg/d, once a day, end of experiment, MV-4-11 xenograft nude mice; for response vs control in vivo at 5 mg/kg/day: read-out: Relative tumor proliferation rate (% T/C); for inhibition in vivo at 5 mg/kg/day: read-out: Tumor growth inhibition rate (TGI %)
Description: Inhibitory effects of a compound and a positive drug on the in-vivo tumor growth of a xenograft tumor model of a nude mouse on human acute monocytic leukemia cell MV-4-11 are tested.
MV-4-11 cells in a logarithmic growth phase are harvested, resuspended after cell counting, and adjusted in cell concentration to 7.0×10^7 cells/mL. The resuspended solution is injected into the right armpit of the nude mice subcutaneously. Each animal is inoculated with 200 μL (14×10^6 cells) of the suspended solution to establish a MV-4-11 xenograft tumor model. Afer the tumor volume reaches 100-300 mm^3, tumor-bearing mice in good health and similar tumor volume are selected.
The compound and the positive drug are vortexed with a suitable solvent and then ultrasonicated to completely dissolve the compound. Then, an appropriate volume of citric acid buffer is slowly added, and the mixed solution is vortexed to make the solution mixed uniformly to obtain administrative formulations having concentrations of 0.1, 0.5, and 1 mg-mL^−1.
Solvent control group: PEG400 & citric acid buffer (20:80, v:v).
The modeled mice are randomly divided into groups (n=6), and administrated with the relevant compounds and positive drugs on the day of grouping. After 21 days or after the tumor volume of the solvent control group reaches 2000 mm^3, the experiment is terminated (whichever reaches the index first), and the administration volume is 10 mL-kg^−1. Both the compound and the positive drug are administered by gavage, once a day. After the experiment starts, the tumor diameter and animal body weight are measured twice a week, and the tumor volume is calculated.
The tumor volume(TV) calculation formula is: tumor volume(mm^3)=l×w^2/2,
The calculation formula of relative tumor volume(RTV) is: RTV=TVt/TVinitial
The calculation formula of relative tumor proliferation rate (% T/C) is: % T/C=100%×(RTVT/RTVC)

[4] = test system: MV-4-11 (human myeloid monocytic leukemia cell line); experiment: Proliferation inhibition activity of compounds to MV-4-11 cells (CellTiter-Glo); assay type: cell-based; details: MV4-11 cells, 72 h dosing
Description: MV-4-11 (human myeloid monocytic leukemia cell line, culture medium: JIMDM+10% fetal bovine serum) is purchased from Cobioer Biosciences Co., Ltd and cultured in a 5% C02 incubator at 37° C. The cells in a logarithmic growth phase are plated in a 96-well plate at cell densities of 8000 cells/well, 6000 cells/well, 2000 cells/well, 2000 cells/well and 3000 cells/well, and a blank control group is set at the same time.
A compound to be tested and the positive drug are dissolved in dimethyl sulfoxide to prepare a 10 mM stock solution, which is then stored in −80° C. refrigerator for long-time storage. After the cells are plated for 24 h, the 10 mM compound stock solution is diluted with dimethyl sulfoxide to obtain a working solution having a 200-fold concentration (the highest concentration is 200 or 2000 μM, a 3-fold gradient, a total of 10 concentrations), and 3 μL of the working solution of each concentration is added to 197 μL of complete medium, and diluted into a working solution of 3-fold concentration. 50 μL of the working solution is then taken and added to a 100 μL cell culture medium (a final concentration of dimethyl sulfoxide is 0.5%, v/v), and two complex holes are set for each concentration. After 72 h of dosing treatment, 50 μl of CellTiter-Glo® (purchased from Promega) is added to each well. Fluorescence signals are measured on Envision (PerkinElmer) according to an operating procedure of the specification. GraphPad Prism 5 software log(inhibitor) vs. response-Variable slope is used to fit a dose-response curve, so as to obtain the IC50 value of the compound to the inhibition of cell-proliferation. The calculation formulation of the inhibition rate is as follows: […]
wherein: signal value of subject: a mean fluorescence signal of cell+medium+compound group; signal value of blank group: a mean fluorescence signal of medium group (containing 0.5% DMSO); signal value of negative control group: a mean fluorescence signal of cell+medium group (containing 0.5% DMSO).

Compound	IC50 [1]	Cmax [2]	Tmax [2]	AUC(0-t) [2]	response vs control in vivo at 5 mg/kg/day [3]	inhibition in vivo at 5 mg/kg/day [3]	half-life [2]	IC50 [4]
CN1Cc2cccc(Nc3nc(Nc4ccc5c(c4)CC[C@@H](N4CCCC4)CC5)ncc3Cl)c2C1=O [Example 28, (S)-7-((5-chloro-2-(((7-(pyrrolidin-1-yl)-6,7,8,9-tetrahydro-5H-benzo[7]annulen-2-yl)amino))pyrimidin-4-yl)amino)-2-methylisoindolin-1-one]	0.31 nM	226 ng/mL	8 h	3000 ng·h/mL	5.9%	104%	–	–
Clc1cnc(Nc2ccc3c(c2)CC[C@@H](N2CCCC2)CC3)nc1Nc1ccccc1-c1ncc[nH]1 [Example 18, (S)—N^4-(2-(1H-imidazol-2-yl)phenyl)-5-chloro-N^2-(7-(pyrrolidin-1-yl)-6,7,8,9-tetrahydro-5H-benzo[7]annulen-2-yl)pyrimidine-2,4-diamine]	0.19 nM	249 ng/mL	2 h	2300 ng·h/mL	37%	71%	3.03 h	–
CP(C)(=O)c1cc(Cl)ccc1Nc1nc(Nc2ccc3c(c2)CC[C@@H](N2CCCC2)CC3)ncc1Cl [Example 52]	1.06 nM	429 ng/mL	0.5 h	1150 ng·h/mL	–	–	2.42 h	5.32 nM
NC(=O)c1cc(F)ccc1Nc1nc(Nc2ccc3c(c2)CC[C@@H](N2CCCC2)CC3)ncc1Cl [Example 16, (S)-2-((5-chloro-2-((7-(pyrrolidin-1-yl)-6,7,8,9-tetrahydro-5H-benzo[7]annulen-2-yl)amino)pyrimidin-4-yl)amino)-5-fluorobenzamide]	0.12 nM	–	–	–	–	–	–	0.97 nM
CP(C)(=O)c1cc(O)ccc1Nc1nc(Nc2ccc3c(c2)CC[C@@H](N2CCCC2)CC3)ncc1Cl [Example 61, (S)-(2-((5-chloro-2-((7-(pyrrolidin-1-yl)-6,7,8,9-tetrahydro-5H-benzo[7]annulen-2-yl)amino)pyrimidin-4-yl)amino)-5-hydroxyphenyl)dimethyl phosphine oxide]	2.38 nM	–	–	–	–	–	–	7.1 nM
CNC(=O)c1cc(OC)ccc1Nc1nc(Nc2ccc3c(c2)CC[C@@H](N2CCCC2)CC3)ncc1Cl [Example 37, (S)-2-((5-chloro-2-(((7-(pyrrolidin-1-yl)-6,7,8,9-tetrahydro-5H-benzo[7]annulen-2-yl)amino))pyrimidin-4-yl)amino)-5-methoxyl-N-methylbenzamide]	0.18 nM	–	–	–	–	–	–	3.39 nM
Clc1cnc(Nc2ccc3c(c2)CC[C@@H](N2CCCC2)CC3)nc1Nc1ccccc1CN1CCOCC1 [Example 40, (S)-5-chloro-N^4-(2-(morpholinmethyl)phenyl)-N^2-(7-(pyrrolidin-1-yl)-6,7,8,9-tetrahydro-5H-benzo[7]annulen-2-yl)pyrimidine-2,4-diamine]	0.72 nM	–	–	–	–	–	–	4.93 nM
CP(C)(=O)c1cc(F)ccc1Nc1nc(Nc2ccc3c(c2)CC[C@@H](N2CCCC2)CC3)ncc1Cl [Example 51, (S)-(2-((5-chloro-2-((7-(pyrrolidin-1-yl)-6,7,8,9-tetrahydro-5H-benzo[7]annulen-2-yl)amino)pyrimidin-4-yl)amino)-5-fluorophenyl)dimethyl phosphine oxide]	2.6 nM	419 ng/mL	0.5 h	1070 ng·h/mL	–	–	2.17 h	4.53 nM
CP(C)(=O)c1cc(CO)ccc1Nc1nc(Nc2ccc3c(c2)CC[C@@H](N2CCCC2)CC3)ncc1Cl [Example 141, (S)-(2-((5-chloro-2-((7-(pyrrolidin-1-yl)-6,7,8,9-tetrahydro-5H-benzo[7]annulen-2-yl)amino)pyrimidin-4-yl)amino)-5-(hydroxymethyl)phenyl)dimethyl phosphine oxide]	2.43 nM	–	–	–	–	–	–	13.9 nM
CC(C)(O)c1ccc(Nc2nc(Nc3ccc4c(c3)CC[C@@H](N3CCCC3)CC4)ncc2Cl)c(P(C)(C)=O)c1 [Example 138]	5.29 nM	–	–	–	–	–	–	41.3 nM
CNC(=O)c1ccccc1Nc1nc(Nc2ccc3c(c2)CCN(C2CCOCC2)CC3)ncc1Cl [Example 31, 2-((5-chloro-2-((3-(tetrahydro-2H-pyran-4-yl)-2,3,4,5-tetrahydro-1H-benzo[d]aza-7-yl)amino)pyrimidin-4-yl)amino)-N-methylbenzamide]	0.8 nM	–	–	–	–	–	–	1.46 nM
CS(=O)(=O)Nc1ccccc1Nc1nc(Nc2ccc3c(c2)CC[C@@H](N2CCCC2)CC3)ncc1Cl [Example 30, (S)—N-(2-((5-chloro-2-((7-(pyrrolidin-1-yl)-6,7,8,9-tetrahydro-5H-benzo[7]annulen-2-yl)amino)pyrimidin-4-yl)amino)phenyl)methanesulfonamide]	1.05 nM	–	–	–	–	–	–	2.64 nM
CNC(=O)c1cc(F)ccc1Nc1nc(Nc2ccc3c(c2)CCN(C2CCOCC2)CC3)ncc1Cl [Example 46, 2-((5-chloro-2-((3-(tetrahydro-2H-pyran-4-yl)-2,3,4,5-tetrahydro-1H-benzo[d]aza-7-yl)amino)pyrimidin-4-yl)amino)-5-fluoro-N-methylbenzamide]	0.8 nM	–	–	–	–	–	–	1.63 nM
